Test results: patent US20260022142A1, “MACROCYCLIC IMMUNOMODULATORS” (Bristol-Myers Squibb Company, priority 2022, published 2026)
Bridge positions count the residues as written; N and C are the ends. Square brackets hold non-standard residues; d marks the D form. Peptide text beside a SMILES is read from it. * marks the point of attachment. ξ: configuration not given here. Phe(3-COOH) = N[C@@H](Cc1cccc(C(=O)O)c1)C(=O)O; Phe(4-COOH) = N[C@@H](Cc1ccc(C(=O)O)cc1)C(=O)O; Bip = N[C@@H](Cc1ccc(-c2ccccc2)cc1)C(=O)O; Phe(3-Me) = Cc1cccc(C[C@H](N)C(=O)O)c1; Val(3-OH) = CC(C)(O)[C@H](N)C(=O)O; hArg = N=C(N)NCCCC[C@H](N)C(=O)O; 3Pal = N[C@@H](Cc1cccnc1)C(=O)O; 4Pal = N[C@@H](Cc1ccncc1)C(=O)O; Cha = N[C@@H](CC1CCCCC1)C(=O)O; Cit = NC(=O)NCCC[C@H](N)C(=O)O; Thr(3ξ) = CC(O)[C@H](N)C(=O)O; 12Ado = NCCCCCCCCCCCC(=O)O; Carboxymethyl = O=C(O)C*; Orn = NCCC[C@H](N)C(=O)O; Aun = NCCCCCCCCCCC(=O)O; Dab = NCC[C@H](N)C(=O)O; Dap = NC[C@H](N)C(=O)O; AEEA = NCCOCCOCC(=O)O; Piv = CC(C)(C)C(=O)*

The molecules below were run against T1, PD-1/PD-L1 interaction (PE-labeled human PD-L1-Ig binding to Jurkat cell line over-expressing human PD-1) (Homo sapiens, UniProt Q15116) (assay: Jurkat-PD-1 Cell Binding High-Content Screening Assay (CBA)). Settings: Jurkat cell line over-expressing human PD-1; PE-labeled PD-L1-Ig 20 nM final; read-out: Jurkat hPD1-PDL1 IC50.
T1 construct: expressed in transfected cells; host or cells: Jurkat
T1 sequence (Q15116 25-288): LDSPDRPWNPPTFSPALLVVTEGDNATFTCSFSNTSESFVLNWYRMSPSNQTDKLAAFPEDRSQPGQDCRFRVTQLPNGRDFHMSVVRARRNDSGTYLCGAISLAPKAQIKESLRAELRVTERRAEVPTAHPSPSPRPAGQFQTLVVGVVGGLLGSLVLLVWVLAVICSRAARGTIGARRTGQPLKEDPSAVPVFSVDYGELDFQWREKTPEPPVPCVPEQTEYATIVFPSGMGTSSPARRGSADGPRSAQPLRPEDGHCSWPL
Assay type: cell-based
Experimental: Example 2: Jurkat-PD-1 Cell Binding High-Content Screening Assay (CBA)
Phycoerythrin (PE) was covalently linked to the Ig epitope tag of human PD-L1-Ig and fluorescently-labeled PD-L1-Ig was used for binding studies with a Jurkat cell line over-expressing human PD-1 (Jurkat-PD-1). Briefly, 8×10^3 Jurkat-hPD-1 cells were seeded into 384 well plates in 20 μl of DMEM supplemented with 10% fetal calf serum. 100 nl of compound was added to cells followed by incubation at 37° C. for 2 h. Then, 5 μl of PE-labeled PD-L1-Ig (20 nM final), diluted in DMEM supplemented with 10% fetal calf serum. After 1 hour incubation, cells were fixed with 4% paraformaldehyde in dPBS containing 10 μg/ml Hoechst 33342 and then washed 3× in 100 μl dPBS. Data was collected and processed using a Cell Insight NXT High Content Imager and associated software.

| IC50 | SMILES |
| --- | --- |
| 11.9 nM | CC[C@H](C)[C@@H]1NC(=O)[C@H](Cc2ccc(-c3ccccc3)cc2)NC(=O)[C@H](C(C)C)NC(=O)[C@H](Cc2c[nH]c3ccccc23)NC(=O)[C@H](CC(=O)O)NC(=O)[C@H](Cc2ccc(OCC(=O)O)cc2)NC(=O)[C@H](CN)NC(=O)CSC[C@@H](C(=O)NCCOCCOCC(=O)N[C@@H](CCN)C(=O)NCCCCCCCCCCC(=O)O)NC(=O)[C@H](CCCCN)NC(=O)[C@H](C(C)C)NC(=O)[C@H](CC2CCCCC2)NC(=O)[C@H](CCN)NC(=O)[C@@H](CC(C)C)NC(=O)[C@H](CCCN)NC1=O [Compound 2626] ({CH2CO}-[Dap]Y(Carboxymethyl)DWV[Bip]I[Orn][dL][Dab][Cha]VKC[AEEA][Dab][Aun]-OH; thioether N-14) |
| 8.8 nM | CC(C)C[C@H]1NC(=O)[C@H](CCCN)NC(=O)[C@H](C(C)C)NC(=O)[C@H](Cc2ccc(-c3ccccc3)cc2)NC(=O)[C@H](C(C)C)NC(=O)[C@H](Cc2c[nH]c3ccccc23)NC(=O)[C@H](CC(=O)O)NC(=O)[C@H](Cc2ccc(OCC(=O)O)cc2)NC(=O)[C@H](CN)NC(=O)CSC[C@@H](C(=O)NCCOCCOCC(=O)NCCCCCCCCCCC(=O)O)NC(=O)[C@H]([C@@H](C)O)NC(=O)[C@H](C(C)C)NC(=O)[C@H](CC2CCCCC2)NC(=O)[C@H](Cc2cnc[nH]2)NC1=O [Compound 1100] ({CH2CO}-[Dap]Y(Carboxymethyl)DWV[Bip]V[Orn][dL]H[Cha]VTC[AEEA][Aun]-OH; thioether N-14) |
| 20.4 nM | CC(C)C[C@H]1NC(=O)[C@H](CCCN)NC(=O)[C@H](C(C)C)NC(=O)[C@H](Cc2ccc(-c3ccccc3)cc2)NC(=O)[C@H](C(C)C)NC(=O)[C@H](Cc2c[nH]c3ccccc23)NC(=O)[C@H](CC(=O)O)NC(=O)[C@H](Cc2ccc(OCC(=O)O)cc2)NC(=O)[C@H](CCCCNC(=N)N)NC(=O)CSC[C@@H](C(=O)NCC(=O)NCCOCCOCC(=O)N[C@@H](CCCN)C(=O)NCCOCCOCC(=O)NCCCCCCCCCCCC(=O)O)NC(=O)[C@H](CO)NC(=O)[C@H](C(C)C)NC(=O)[C@H](CC2CCCCC2)NC(=O)[C@H](CCN)NC1=O [Compound 3190] ({CH2CO}-[hArg]Y(Carboxymethyl)DWV[Bip]V[Orn][dL][Dab][Cha]VSCG[AEEA][Orn][AEEA][12Ado]-OH; thioether N-14) |
| 10.8 nM | Cc1cccc(C[C@@H]2NC(=O)[C@H](CC(=O)O)NC(=O)[C@H](Cc3ccc(OCC(=O)O)cc3)NC(=O)[C@H](CN)NC(=O)CSC[C@@H](C(=O)N[C@@H](CCCCN)C(=O)NCCOCCOCC(=O)NCCCCCCCCCCC(=O)O)NC(=O)[C@H](CN)NC(=O)[C@H](C(C)C)NC(=O)[C@H](CC3CCCCC3)NC(=O)[C@H](CCN)NC(=O)[C@@H](CC(C)C)NC(=O)[C@H](CCCN)NC(=O)[C@H](CCC(=O)O)NC(=O)[C@H](Cc3ccc(-c4ccccc4)cc3)NC(=O)[C@H](C(C)C)NC2=O)c1 [Compound 2668] ({CH2CO}-[Dap]Y(Carboxymethyl)D[Phe(3-Me)]V[Bip]E[Orn][dL][Dab][Cha]V[Dap]CK[AEEA][Aun]-OH; thioether N-14) |
| 32.1 nM | CC(C)C[C@H]1NC(=O)[C@H](CCCN)NC(=O)[C@H](C(C)C)NC(=O)[C@H](Cc2ccc(-c3ccccc3)cc2)NC(=O)[C@H](C(C)C)NC(=O)[C@H](Cc2c[nH]c3ccccc23)NC(=O)[C@H](CC(=O)O)NC(=O)[C@H](Cc2ccc(C(=O)O)cc2)NC(=O)[C@H](Cc2ccc(OCC(=O)O)cc2)NC(=O)CSC[C@@H](C(=O)N[C@H](CO)C(=O)NCCOCCOCC(=O)N[C@@H](CCCN)C(=O)NCCCCCCCCCCCC(=O)O)NC(=O)[C@H](CO)NC(=O)[C@H](C(C)C)NC(=O)[C@H](CC2CCCCC2)NC(=O)[C@H](CCN)NC1=O [Compound 3064] ({CH2CO}-Y(Carboxymethyl)[Phe(4-COOH)]DWV[Bip]V[Orn][dL][Dab][Cha]VSC[dS][AEEA][Orn][12Ado]-OH; thioether N-14) |
| 8.1 nM | Cc1cccc(C[C@@H]2NC(=O)[C@H](CC(=O)O)NC(=O)[C@H](Cc3ccc(OCC(=O)O)cc3)NC(=O)[C@H](CCCNC(=N)N)NC(=O)CSC[C@@H](C(=O)N[C@@H](CCN)C(=O)NCCCCCCCCCCC(=O)O)NC(=O)[C@H](CCCNC(N)=O)NC(=O)[C@H](C(C)C)NC(=O)[C@H](CC3CCCCC3)NC(=O)[C@H](CCN)NC(=O)[C@@H](CC(C)C)NC(=O)[C@H](CCN)NC(=O)[C@H](C(C)C)NC(=O)[C@H](Cc3ccc(-c4ccccc4)cc3)NC(=O)[C@H](C(C)C)NC2=O)c1 [Compound 3360] ({CH2CO}-RY(Carboxymethyl)D[Phe(3-Me)]V[Bip]V[Dab][dL][Dab][Cha]V[Cit]C[Dab][Aun]-OH; thioether N-14) |
| 13.2 nM | Cc1cccc(C[C@@H]2NC(=O)[C@H](CC(=O)O)NC(=O)[C@H](Cc3ccc(OCC(=O)O)cc3)NC(=O)[C@H](CCCNC(=N)N)NC(=O)CSC[C@@H](C(=O)N[C@@H](CCN)C(=O)NCCCCCCCCCCC(=O)O)NC(=O)[C@H](C(C)O)NC(=O)[C@H](C(C)C)NC(=O)[C@H](CC3CCCCC3)NC(=O)[C@H](CCN)NC(=O)[C@@H](CC(C)C)NC(=O)[C@H](CCCN)NC(=O)[C@H](CCCCNC(=O)C(C)(C)C)NC(=O)[C@H](Cc3ccc(-c4ccccc4)cc3)NC(=O)[C@H](Cc3ccc(O)cc3)NC2=O)c1 (stereo partly drawn) [Compound 3556] ({CH2CO}-RY(Carboxymethyl)D[Phe(3-Me)]Y[Bip]K(Piv)[Orn][dL][Dab][Cha]V[Thr(3ξ)]C[Dab][Aun]-OH; thioether N-14) |
| 72.5 nM | Cc1cccc(C[C@@H]2NC(=O)[C@H](CC(=O)O)NC(=O)[C@H](Cc3ccc(OCC(=O)O)cc3)NC(=O)[C@H](Cc3ccncc3)NC(=O)CSC[C@@H](C(=O)N[C@@H](CCN)C(=O)NCCCCCCCCCCC(=O)O)NC(=O)[C@H]([C@@H](C)O)NC(=O)[C@H](C(C)C)NC(=O)[C@H](CC3CCCCC3)NC(=O)[C@H](CCN)NC(=O)[C@@H](CC(C)C)NC(=O)[C@H](CCCN)NC(=O)[C@H](Cc3ccc(O)cc3)NC(=O)[C@H](Cc3ccc(-c4ccccc4)cc3)NC(=O)[C@H](C(C)C)NC2=O)c1 [Compound 2744] ({CH2CO}-[4Pal]Y(Carboxymethyl)D[Phe(3-Me)]V[Bip]Y[Orn][dL][Dab][Cha]VTC[Dab][Aun]-OH; thioether N-14) |
| 15.4 nM | Cc1cccc(C[C@@H]2NC(=O)[C@H](CC(=O)O)NC(=O)[C@H](Cc3ccc(OCC(=O)O)cc3)NC(=O)[C@H](CN)NC(=O)CSC[C@@H](C(=O)N[C@@H](CCN)C(=O)NCCOCCOCC(=O)NCCCCCCCCCCC(=O)O)NC(=O)[C@H](CCCN)NC(=O)[C@H](C(C)C)NC(=O)[C@H](CC3CCCCC3)NC(=O)[C@H](CCN)NC(=O)[C@@H](CC(C)C)NC(=O)[C@H](CCCN)NC(=O)[C@H](Cc3ccc(O)cc3)NC(=O)[C@H](Cc3ccc(-c4ccccc4)cc3)NC(=O)[C@H](Cc3cccc(C(=O)O)c3)NC2=O)c1 [Compound 2064] ({CH2CO}-[Dap]Y(Carboxymethyl)D[Phe(3-Me)][Phe(3-COOH)][Bip]Y[Orn][dL][Dab][Cha]V[Orn]C[Dab][AEEA][Aun]-OH; thioether N-14) |
| 48.6 nM | CC(C)C[C@H]1NC(=O)[C@H](CCCN)NC(=O)[C@H](Cc2ccc(O)cc2)NC(=O)[C@H](Cc2ccc(-c3ccccc3)cc2)NC(=O)[C@H](C(C)C)NC(=O)[C@H](Cc2c[nH]c3ccccc23)NC(=O)[C@H](CC(=O)O)NC(=O)[C@H](Cc2ccncc2)NC(=O)[C@H](Cc2ccc(OCC(=O)O)cc2)NC(=O)CSC[C@@H](C(=O)N[C@@H](CCN)C(=O)NCCCCCCCCCCC(=O)O)NC(=O)[C@H]([C@@H](C)O)NC(=O)[C@H](C(C)C)NC(=O)[C@H](CC2CCCCC2)NC(=O)[C@H](CCN)NC1=O [Compound 2746] ({CH2CO}-Y(Carboxymethyl)[4Pal]DWV[Bip]Y[Orn][dL][Dab][Cha]VTC[Dab][Aun]-OH; thioether N-14) |
| 55.1 nM | Cc1cccc(C[C@@H]2NC(=O)[C@H](CC(=O)O)NC(=O)[C@H](Cc3ccc(OCC(=O)O)cc3)NC(=O)[C@H](Cc3cccnc3)NC(=O)CSC[C@@H](C(=O)N[C@@H](CCN)C(=O)NCCCCCCCCCCC(=O)O)NC(=O)[C@H](CO)NC(=O)[C@H](C(C)C)NC(=O)[C@H](CC3CCCCC3)NC(=O)[C@H](CCN)NC(=O)[C@@H](CC(C)C)NC(=O)[C@H](CCCN)NC(=O)[C@H](Cc3ccc(OCC(=O)O)cc3)NC(=O)[C@H](Cc3ccc(-c4ccccc4)cc3)NC(=O)[C@H](C(C)(C)O)NC2=O)c1 [Compound 2149] ({CH2CO}-[3Pal]Y(Carboxymethyl)D[Phe(3-Me)][Val(3-OH)][Bip]Y(Carboxymethyl)[Orn][dL][Dab][Cha]VSC[Dab][Aun]-OH; thioether N-14) |
| 20.5 nM | Cc1cccc(C[C@@H]2NC(=O)[C@H](CC(=O)O)NC(=O)[C@H](Cc3ccc(OCC(=O)O)cc3)NC(=O)[C@H](CCCNC(=N)N)NC(=O)CSC[C@@H](C(=O)N[C@@H](CCN)C(=O)NCCCCCCCCCCC(=O)O)NC(=O)[C@H](C(C)O)NC(=O)[C@H](C(C)C)NC(=O)[C@H](CC3CCCCC3)NC(=O)[C@H](CCN)NC(=O)[C@@H](CC(C)C)NC(=O)[C@H](CCCN)NC(=O)[C@H](Cc3ccc(OCC(=O)O)cc3)NC(=O)[C@H](Cc3ccc(-c4ccccc4)cc3)NC(=O)[C@H](CC(C)C)NC2=O)c1 (stereo partly drawn) [Compound 3387] ({CH2CO}-RY(Carboxymethyl)D[Phe(3-Me)]L[Bip]Y(Carboxymethyl)[Orn][dL][Dab][Cha]V[Thr(3ξ)]C[Dab][Aun]-OH; thioether N-14) |
